Results: patent US6376472B1, “Compounds having antihypertensive, cardioprotective, anti-ischemic and antilipolytic properties” (Aventis Pharmaceuticals, Inc., priority 1996, dated 2002)
One block for each molecule: values may come before it.

Tests used:
lipolysis = conditions: selective agonists of the A2 receptor subtype; cited from earlier work
A1 and A2 receptors = conditions: selectivity of receptor affinity; cited from earlier work
A2 receptor = conditions: relative to NECA; cited from earlier work

melting point: 166 to 168 °C
Structure (SMILES): COC[C@H]1C[C@@H](n2cnc3c(N[C@H]4CCN(c5ccc(C(F)(F)F)cn5)C4)ncnc32)[C@@H](O)[C@H]1O

Structure (SMILES): CCNC(=O)[C@H]1O[C@@H](n2cnc3c(N)nc(NCCc4ccc(CCC(=O)O)cc4)nc32)[C@H](O)[C@@H]1O [CGS 21680]
antilipolytic activity (lipolysis): do not exhibit antilipolytic activity

Structure (SMILES): OC[C@H]1O[C@@H](n2cnc3c(NC4CCCC4)ncnc32)[C@H](O)[C@@H]1O [CPA, Cyclopentyladenosine]
A2/A1 ratio (A1 and A2 receptors): 780

Structure (SMILES): Nc1nc(Nc2ccccc2)nc2c1ncn2[C@@H]1O[C@H](CO)[C@@H](O)[C@H]1O [CV-1808]
A2/A1 ratio (A1 and A2 receptors): 0.19
fold less potent than NECA in affinity for the A2 receptor (A2 receptor): 10 fold
